This passage reports remaining activity results from patent US12209079B2 (GENERAL INCORPORATED ASSOCIATION PHARMA VALLEY PROJECT …, priority 2017, dated 2025).

Where a name gives a salt, the structure may show the parent alone. Some results are limits rather than exact numbers.

In test [1] the target is rhTDO (recombinant human TDO) (Homo sapiens, UniProt P48775). Briefly: Enzyme assay using rhTDO (rate of kynurenine production). It counts as biochemical. To be noted: 2 h; final concentration of the compound 10 μM; rate relative to reaction without compound; read-out: rhTDO-mediated kynurenine production. On the procedure: 4 μL of a compound solution was added to 176 μL of a rhTDO reaction solution (0.5 M potassium phosphate buffer (20 μL), 0.2 M ascorbic acid (20 μL), 0.5 mM methylene blue (4 μL), 10 mg/mL catalase (2 μL), H2O (128 μL), and rhTDO (2 μL)). The mixture was pipetted and preincubated at 37° C. for 10 minutes. Then, the whole amount was brought to 200 μL by the addition of 20 μL of a 20 mM aqueous tryptophan solution, and the mixture was pipetted again and reacted at 37° C. for 120 minutes. After the reaction, the enzymatic reaction was terminated by the addition of 40 μL of a 30% [v/v] aqueous trichloroacetic acid solution to the reaction solution. The mixture was well stirred by pipetting and heated at 50° C. for 15 minutes so that N-formylkynurenine was converted to kynurenine. The reaction solution thus heated was centrifuged (15,000 rpm, 5 min, 24° C.), and 150 μL of the supernatant was transferred to a transparent 96-well flat-bottomed plate, followed by the measurement of absorbance at 490 nm using SpectraMax M5 SK (background measurement). After the measurement, a solution of 2% [w/v] p-dimethylbenzaldehyde in acetic acid was added at 150 μL/well and reacted for 5 minutes, followed by the measurement of absorbance at 490 nm again. The rate of kynurenine production was calculated according to the following expression. Rate of kynurenine production (%) for each compound in the case of using rhTDO={(Absorbance at 490 nm in the tryptophan-containing aqueous solution comprising rhTDO and the compound of the present invention−Absorbance of the background)/(Absorbance at 490 nm in the tryptophan-containing aqueous solution without the addition of the compound solution−Absorbance of the background)}×100 IDO Cell-Based Assay Protocol

For the next test, the target named is T1, IDO in A431 cells (Homo sapiens, UniProt P14902).
T1 construct: endogenous in cells; host or cells: A431 cells, IFN-γ stimulated
Briefly: IDO cell-based assay, kynurenine production in IFN-γ stimulated A431 cells. As to conditions: A-431, 24 h; final concentration of the compound 10 μM; rate relative to culture without compound. The protocol: A431 cells (3.0×10^5 cells/mL) suspended in a culture medium for assay (D-MEM; Wako 040-30095, 5% FBS, 50 units/mL penicillin, 50 μg/mL streptomycin, and 2 mM L-glutamine) were inoculated at 100 μL/well to a transparent 96-well flat-bottomed plate and cultured at 37° C. for 24 hours in 5% CO2. The culture medium was removed from the cells thus cultured. A tryptophan-containing culture medium (culture medium for assay supplemented with 178 μM L-tryptophan) was added at 80 μL/well, and further, a compound solution was added at 10 μL/well. The cells were preincubated for 1 hour. Then, the whole amount was brought to 100 μL/well by the addition of 10 μL/well of IFN-γ diluted into 100 ng/mL with a tryptophan-containing culture medium, and the cells were cultured for 24 hours. After the culture, absorbance was measured at 460 nm using SpectraMax MSSK (Molecular Devices, LLC) (background measurement). After the measurement, a kynurenine quantification reagent (prepared with 7% [v/v] aqueous trichloroacetic acid solution and a solution of 2% [w/v] p-dimethylbenzaldehyde in acetic acid at 2:5 [v/v]) was added at 200 μL/well and reacted for 5 minutes, followed by the measurement of absorbance at 460 nm again. The rate of kynurenine production was calculated according to the following expression. Rate of kynurenine production (%) for each compound in the case of using A431 cells={(Absorbance at 460 nm in the tryptophan-containing culture medium comprising the A431 cells and the solution of the compound of the present invention−Absorbance of the background)/(Absorbance at 460 nm in the tryptophan-containing culture medium without the addition of the compound solution−Absorbance of the background)}×100 TDO Cell-Based Assay Protocol

A further test deals with T2, TDO in A172 cells (Homo sapiens, UniProt P48775).
T2 construct: endogenous in cells; host or cells: A172 cells
The experiment in a line: TDO cell-based assay, kynurenine production in A172 cells. As to conditions: A 172; final concentration of the compound 10 μM; rate relative to culture without compound. On the procedure: A172 cells (3.0×10^5 cells/mL) suspended in a culture medium for assay (PRMI-1640; Wako 186-02155, 5% FBS, 50 units/mL penicillin, and 50 μg/mL streptomycin) were inoculated at 100 μL/well to a transparent 96-well flat-bottomed plate and cultured at 37° C. for 24 hours in 5% CO2. The culture medium was removed from the cells thus cultured. A culture medium for assay was added at 80 μL/well, and further, a compound solution was added at 10 μL/well. The cells were preincubated for 1 hour. Then, the whole amount was brought to 100 μL/well by the addition of 10 μL/well of a 5 mM aqueous tryptophan solution (final concentration of L-tryptophan: 524 μM), and the cells were cultured for 24 hours. After the culture, absorbance was measured at 460 nm using SpectraMax MSSK (Molecular Devices, LLC) (background measurement). After the measurement, a kynurenine quantification reagent (prepared with 7% [v/v] aqueous trichloroacetic acid solution and a solution of 2% [w/v] p-dimethylbenzaldehyde in acetic acid at 2:5 [v/v]) was added at 200 μL/well and reacted for 5 minutes, followed by the measurement of absorbance at 460 nm again. The rate of kynurenine production was calculated according to the following expression. Rate of kynurenine production (%) for each compound in the case of using A172 cells={(Absorbance at 460 nm in the tryptophan-containing culture medium comprising the A172 cells and the solution of the compound of the present invention−Absorbance of the background)/(Absorbance at 460 nm in the tryptophan-containing culture medium without the addition of the compound solution−Absorbance of the background)}×100

Test [2] deals with rhIDO (recombinant human IDO) (Homo sapiens, UniProt P14902). Briefly: Enzyme assay using rhIDO (rate of kynurenine production). The format is biochemical. As to conditions: 2 h; final concentration of the compound 10 μM; rate relative to reaction without compound; read-out: rhIDO-mediated kynurenine production. On the procedure: Enzyme Assay Protocol Using rhIDO (Recombinant Human IDO)
4 μL of a compound solution was added to 176 μL of a rhIDO reaction solution (0.5 M potassium phosphate buffer (20 μL), 0.2 M ascorbic acid (20 μL), 0.5 mM methylene blue (4 μL), 10 mg/mL catalase (2 μL), H2O (128 μL), and rhIDO (2 μL)). The mixture was pipetted and preincubated at 37° C. for 10 minutes. Then, the whole amount was brought to 200 μL by the addition of 20 μL of a 2 mM aqueous tryptophan solution, and the mixture was pipetted again and reacted at 37° C. for 120 minutes. After the reaction, the enzymatic reaction was terminated by the addition of 40 μL of a 30% [v/v] aqueous trichloroacetic acid solution to the reaction solution. The mixture was well stirred by pipetting and heated at 50° C. for 15 minutes so that N-formylkynurenine was converted to kynurenine. The reaction solution thus heated was centrifuged (15,000 rpm, 5 min, 24° C.), and 150 μL of the supernatant was transferred to a transparent 96-well flat-bottomed plate, followed by the measurement of absorbance at 490 nm using SpectraMax MSSK (background measurement). After the measurement, a solution of 2% [w/v] p-dimethylbenzaldehyde in acetic acid was added at 150 μL/well and reacted for 5 minutes, followed by the measurement of absorbance at 490 nm again. The rate of kynurenine production was calculated according to the following expression. Rate of kynurenine production (%) for each compound in the case of using rhIDO={(Absorbance at 490 nm in the tryptophan-containing aqueous solution comprising rhIDO and the compound of the present invention−Absorbance of the background)/(Absorbance at 490 nm in the tryptophan-containing aqueous solution without the addition of the compound solution−Absorbance of the background)}×100 Enzyme Assay Protocol Using rhTDO (Recombinant Human TDO)

T1 sequence (P14902 whole entry): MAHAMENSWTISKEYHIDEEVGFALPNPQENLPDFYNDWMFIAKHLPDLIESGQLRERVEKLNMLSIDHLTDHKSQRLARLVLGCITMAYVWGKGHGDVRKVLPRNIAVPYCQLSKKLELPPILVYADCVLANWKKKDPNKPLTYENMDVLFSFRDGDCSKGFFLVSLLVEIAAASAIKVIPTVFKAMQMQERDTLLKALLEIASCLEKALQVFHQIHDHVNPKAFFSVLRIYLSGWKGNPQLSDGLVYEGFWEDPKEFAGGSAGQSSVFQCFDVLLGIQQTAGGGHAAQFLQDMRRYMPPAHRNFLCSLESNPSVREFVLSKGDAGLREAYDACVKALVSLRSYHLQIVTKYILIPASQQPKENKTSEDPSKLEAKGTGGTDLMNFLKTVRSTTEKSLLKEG
rhIDO (recombinant human IDO), sequence (P14902 whole entry): as above
rhTDO (recombinant human TDO), sequence (P48775 whole entry): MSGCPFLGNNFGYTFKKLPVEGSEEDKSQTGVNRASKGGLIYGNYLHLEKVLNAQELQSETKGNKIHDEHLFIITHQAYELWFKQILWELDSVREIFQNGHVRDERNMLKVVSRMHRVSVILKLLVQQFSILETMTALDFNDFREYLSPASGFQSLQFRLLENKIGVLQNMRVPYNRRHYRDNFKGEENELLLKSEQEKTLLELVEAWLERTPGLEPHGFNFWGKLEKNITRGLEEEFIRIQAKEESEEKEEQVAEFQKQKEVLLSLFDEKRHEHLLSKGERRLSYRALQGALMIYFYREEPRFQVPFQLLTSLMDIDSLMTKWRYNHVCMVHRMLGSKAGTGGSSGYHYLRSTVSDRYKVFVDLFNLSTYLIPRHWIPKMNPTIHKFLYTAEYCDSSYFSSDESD
T2 sequence (P48775 whole entry): as above

As for `COC(=O)c1c(CSC(=N)N)[nH]c2ccccc12` [Compound 32, Methyl 2-((carbamimidoylthio)methyl)-1H-indole-3-carboxylate hydrobromide], the remaining activity at 10 µM in test [1] was determined as 51%; at IDO in A431 cells, 54%; on TDO in A172 cells, 52%; in test [2], 59%.
The corresponding values for `N=C(N)SCc1cccnc1CSC(=N)N` [Compound 34, Pyridine-2,3-diylbis(methylene) dicarbamimidothioate dihydrobromide] are 27%, 29%, 47% and 25%.
As to `COc1ccc(CSC(=N)N)c(CSC(=N)N)c1` [Compound 35, (4-Methoxy-1,2-phenylene)bis(methylene) dicarbamimidothioate dihydrobromide], the remaining activity at 10 µM in test [1] stood at 7%; on IDO in A431 cells, 4%; at TDO in A172 cells it was 0%; in test [2] it was 24%.
For the compound `N=C(N)SCc1cc(Cl)c(Cl)cc1CSC(=N)N` [Compound 36, (4,5-dichloro-1,2-phenylene)bis(methylene) dicarbamimidothioate dihydrobromide], the remaining activity at 10 µM was less than 3% in test [1], 1% on IDO in A431 cells, -15% at TDO in A172 cells and less than 1% in test [2].
For the compound `Clc1ccc(CCN2CN=C(SCc3cc(Cl)c(Cl)cc3CSC3=NCN(CCc4ccc(Cl)c(Cl)c4)CN3)NC2)cc1Cl` [Compound 38, 6,6′-(((4,5-Dichloro-1,2-phenylene)bis(methylene))bis(sulfanediyl))bis(3-(3,4-dichlorophenethyl)-1,2,3,4-tetrahydro-1,3,5-triazine)], the remaining activity at 10 µM is 37% in test [1], 2% at IDO in A431 cells, -1% on TDO in A172 cells and 16% in test [2].
Take `Clc1ccc(CCN2CN=C(SCc3ccc(Br)cc3CSC3=NCN(CCc4ccc(Cl)c(Cl)c4)CN3)NC2)cc1Cl` [Compound 39, 6,6′-(((4-Bromo-1,2-phenylene)bis(methylene))bis(sulfanediyl))bis(3-(3,4-dichlorophenethyl)-1,2,3,4-tetrahydro-1,3,5-triazine)]: the remaining activity at 10 µM was found to be 38% in test [1], 0% at IDO in A431 cells, 7% on TDO in A172 cells and 7% in test [2].
Take `c1csc(CCN2CN=C(SCc3ccccc3CSC3=NCN(CCc4cccs4)CN3)NC2)c1` [Compound 40, 1,2-Bis (((5-(2-(thiophen-2-yl)ethyl)-1,4,5,6-tetrahydro-1,3,5-triazin-2-yl)thio)methyl)benzene]: the remaining activity at 10 µM in test [1] amounted to 29%; at IDO in A431 cells, 9%; at TDO in A172 cells, 1%; in test [2] it was 34%.
Regarding `Clc1ccc(CN2CN=C(SCc3ccccc3CSC3=NCN(Cc4ccc(Cl)cc4)CN3)NC2)cc1` [Compound 41, 1,2-Bis(((5-(4-chlorobenzyl)-1,4,5,6-tetrahydro-1,3,5-triazin-2-yl)thio)methyl)benzene], the remaining activity at 10 µM was 45% in test [1], 6% on IDO in A431 cells, 4% on TDO in A172 cells and 41% in test [2].
`FC(F)(F)c1ccc(CN2CN=C(SCc3ccccc3CSC3=NCN(Cc4ccc(C(F)(F)F)cc4)CN3)NC2)cc1` [Compound 42, 1,2-Bis(((5-(4-(trifluoromethyl)benzyl)-1,4,5,6-tetrahydro-1,3,5-triazin-2-yl)thio)methyl)benzene]: the remaining activity at 10 µM worked out at 41% in test [1], 6% on IDO in A431 cells, 2% at TDO in A172 cells and 68% in test [2].
As to `Fc1ccc(CN2CN=C(SCc3ccccc3CSC3=NCN(Cc4ccc(F)c(F)c4)CN3)NC2)cc1F` [Compound 43, 1,2-Bis(((5-(3,4-difluorobenzyl)-1,4,5,6-tetrahydro-1,3,5-triazin-2-yl)thio)methyl)benzene], the remaining activity at 10 µM in test [1] was 41%; on IDO in A431 cells, 11%; on TDO in A172 cells, -2%; in test [2] it was 71%.
As to `Cc1ccc(C)c(CN2CN=C(SCc3ccccc3CSC3=NCN(Cc4cc(C)ccc4C)CN3)NC2)c1` [Compound 44, 1,2-Bis(((5-(2,5-dimethylbenzyl)-1,4,5,6-tetrahydro-1,3,5-triazin-2-yl)thio)methyl)benzene], the remaining activity at 10 µM in test [1] worked out at 26%; at IDO in A431 cells it was 11%; at TDO in A172 cells, 1%; in test [2] it was 50%.
